The text below walks through data of US7892569B2, “Methods of altering an immune response induced by CpG oligodeoxynucleotides” (The United States of America as represented by the …, priority 2005, dated 2011).

The subject of series [1] is PBMC. Nature of the series: Cytokine production of PBMC preincubated with GM-6001 and stimulated with K or D ODN (ELISA). It is filed as cell-based, human. As to conditions: 50 μM preincubation, 24 hours. As for the experimental part: (§1) FIGS. 7A-7B are a plot and a bar graph showing the metalloproteinase inhibitor GM-6001 enhances CXCL16 expression and subsequent cytokine production induced by D ODN. PBMC were preincubated in the absence (open bars) or presence (filled bars) of GM-6001 (50 μM) for 30 minutes, washed and then stained for CXCL16 expression on pDC (see FIG. 7A) or stimulated with 1 μM of K or 3 μM D ODN for 24 hours (FIG. 7B). Cytokine production (IL-6 for K ODN and IFN-α D ODN) was assessed from culture supernatants using ELISA. Individual results from six different PBMC are shown.
(§2) CXCL16 expressed on the cell surface is cleaved by the metalloproteinase ADAM-10 (Abel et al., J Immunol. 2004 172(10):6362-72, 2004; Gough et al., J Immunol. 172(6):3678-85, 2004). […] Based on the observation that pDC expressing high levels of CXCL16 were more responsive to D ODN stimulation, human PBMC were incubated with GM6001 followed by K or D ODNs.
In general terms: An ELISA detects its analyte on a solid surface through an enzyme-linked reagent.

Series [2] concerns pDC. The series is described as follows: CXCL16 expression on pDC after preincubation of PBMC with GM-6001. Format: cell-based, human. As to conditions: 50 μM, 30 minutes preincubation of PBMC. As for the experimental part: as §1, §2
A short description of series [3]: Cytokine induction by D ODN (statement in the description). It is filed as cell-based. As to conditions: no test described.
Series [4] relates to pDC. Nature of the series: Binding of FITC conjugated CpG ODN to purified pDC in the presence of scavenger receptor ligands (flow cytometry). As to conditions: 50 μg/ml inhibitor, preincubated 20 min at 4° C., mean ± S.D. It is filed as cell-based, human. The procedure: (§3) FIGS. 3A-3D are bar graphs and plots showing the effect of scavenger receptor ligands on the binding and activity of CpG ODN. FIG. 3A is a bar graph of the results obtained when purified pDC were preincubated (20 minutes at 4° C.) with medium or with 50 μg/ml each of inhibitors followed by addition of 1 μM FITC conjugated ODN. Mean fluorescence intensity representing binding of FITC-ODN was assessed using flow cytometry. Results represent the mean±S.D of three independent experiments. FIG. 3B is a bar graph showing D ODN induced IFN-α from peripheral blood mononuclear cells (PBMC). Open bars: medium; dotted bars: chondroitin sulfate; right-striped bars: fucoidan; left-striped bars: dextran sulfate Production of IFN-α from PBMC (in the absence or presence of 50 μg/ml inhibitors) was determined by ELISA from 24 hour culture supernatants. FIG. 3C is a plot showing K ODN induced TNF-α production in pDC (in the absence or presence of 50 μg/ml dextran sulfate). TNF-α production was determined using intracytoplasmic cytokine staining (representative plots of three independent experiments). FIG. 3D is a plot showing the results obtained when purified pDC were incubated with 1 μM each of K or with 3 μM D ODN in the absence or presence of 50 μg/ml dextran sulfate. Upregulation of HLA-DR/CD54 was determined 24 hours later using flow cytometry.
To evaluate whether a scavenger receptor (SR) played a role in D ODN uptake and signaling, the ability of dextran sulfate and fucoidan (classical scavenger receptor ligands) to block the binding of CpG ODN to pDC was evaluated (Table 2 and Supplementary FIG. 3A).
In general terms: In flow cytometry, cells or beads pass a laser one at a time.

Series [5] relates to PBMC. Nature of the series: CpG ODN induced cytokine secretion (TNF-α, IFN-α) in the absence or presence of scavenger receptor ligands. It is filed as cell-based, human. As to conditions: 50 μg/ml inhibitor. As for the experimental part:
as §3, with “FIG. 3A is a bar graph of the results obtained when purified pDC were preincubated (20 minutes at 4° C.) with medium or with 50 μg/ml each of inhibitors followed by addition of 1 μM FITC conjugated ODN.” left out, “FIG. 3B is a bar graph showing D ODN induced IFN-α from peripheral blood mononuclear cells (PBMC).” left out, “FIG. 3C is a plot showing K ODN induced TNF-α production in pDC (in the absence or presence of 50 μg/ml dextran sulfate).” left out

The subject of series [6] is pDC. Nature of the series: Upregulation of HLA-DR/CD54 on purified pDC by CpG ODN in the absence or presence of dextran sulfate. It is filed as cell-based, human. As to conditions: 24 hours, 50 μg/ml inhibitor. As for the experimental part:
as §3, with “FIG. 3A is a bar graph of the results obtained when purified pDC were preincubated (20 minutes at 4° C.) with medium or with 50 μg/ml each of inhibitors followed by addition of 1 μM FITC conjugated ODN.” left out, “FIG. 3B is a bar graph showing D ODN induced IFN-α from peripheral blood mononuclear cells (PBMC).” left out, “FIG. 3C is a plot showing K ODN induced TNF-α production in pDC (in the absence or presence of 50 μg/ml dextran sulfate).” left out

The mark [7] stands for this setting: D ODN: 1 μM FITC conjugated ODN.

Take `CNC(=O)[C@H](Cc1c[nH]c2ccccc12)NC(=O)[C@@H](CC(=O)NO)CC(C)C` [GM6001]: in the series with PBMC [1] (1 μM K ODN), the “effect on cells stimulated with K ODN (IL-6 production)” value is on record as “no effect”. Moreover, the “increase of D ODN responsiveness of pDCs (IFN-α production)” value with PBMC [1] (3 μM D ODN) is given as 2 fold. In the series on pDC [2], the “expression of CXCL16 on pDC” value is given as “increased”.

“DV113: D ODN GGTGCATCGATACAGGGGGG (SEQ ID NO: 6) (DNA, backbone not given here; underlined bases phosphodiester, further chemistry not fully specified)”: the “induction of IFN-γ and IFN-α” value in series [3] is listed as “high levels”.

For the compound chondroitin sulfate, the “% inhibition of binding to pDC” value in the series with pDC [4] (setting [7]) was “not”.

For Dextran sulfate, the “% inhibition of binding to pDC” value is recorded as over 50% with pDC [4] (setting [7]); 65.02 ± 5.8% in the series with pDC [4] (D ODN: 1 μM FITC conjugated ODN, listed as Dextran Sulfate); “not” with pDC [4] (K ODN: 1 μM FITC conjugated ODN); 23.2 ± 8.8% in the series with pDC [4] (K ODN: 1 μM FITC conjugated ODN, listed as Dextran Sulfate). Moreover, the “% inhibition of cytokine secretion” value is given as 90.3 ± 8.4% with PBMC [5] (D ODN induced IFN-α production from PBMC, ELISA) and 5.8 ± 2.3% in the series on PBMC [5] (K ODN induced TNF-α production, intracytoplasmic staining). Also, the “% inhibition in the generation of HLA-DR/CD54 double positive cells” value in the series on pDC [6] (1 μM K ODN) was determined as 0.8 ± 1.8%; in the series on pDC [6] (3 μM D ODN), 92.3 ± 5.8%.
